Measurements from paper PMC7038240 (Antimicrobial Agents and Chemotherapy, 2020).
Like-named read-outs stand apart in the source and are kept apart here.

What was measured:
Assay in all cases: microbe, parasite or virus in culture
Type in all cases: cell-based
P. aeruginosa = conditions: Pseudomonas aeruginosa, read-out: MIC
From the text: (§1) The antibacterial activity of cefepime-taniborbactam was compared to that of ceftazidime-avibactam, ceftolozane-tazobactam, and cefepime-tazobactam against a diverse panel of Enterobacterales and P. aeruginosa clinical isolates with defined β-lactamase subtypes (see Table S1 in the supplemental material). IMP-producing strains were excluded, as none of the BLI-protected cephalosporins inhibited IMP sufficiently to provide a clinically relevant rescue of the partner β-lactam, a characteristic also shared by approved BLI-protected carbapenems (meropenem-vaborbactam and imipenem-relebactam). […] The antibacterial activity of the cephalosporins alone was included to ascertain the level of potentiation by the partnered BLI. BLIs were tested at a fixed concentration of 4 μg/ml in all combinations except cefepime-tazobactam, where tazobactam was fixed at a concentration of 8 μg/ml ([38]). The collection comprised 143 clinical isolates collected from 2005 and 2018.
(§2) The in vitro antibacterial activity of the β-lactams alone or in combination with the BLIs was determined in cation-adjusted Mueller-Hinton broth (CAMHB) microdilution assays according to CLSI recommendations ([51]). […]. The inocula for the broth microdilution assays were prepared by the broth culture method ([51]). […]

S. typhi = conditions: Salmonella enterica, strain 26A, AmpC/TEM-1
From the text: as §1, §2

S. marcescens = conditions: Serratia marcescens
From the text: as §1, §2

E. coli = system: E. coli
From the text: as §1, §2

## CC(C)(O/N=C(\C(=O)N[C@@H]1C(=O)N2C(C(=O)[O-])=C(C[n+]3ccccc3)CS[C@H]12)c1csc(N)n1)C(=O)O [CAZ]
P. aeruginosa; strain 247.3D, VIM-2
  MIC: ≥ 256 µg/mL
P. aeruginosa; strain 1129, PDC
  MIC: 4 µg/mL
P. aeruginosa; strain 3615, PDC/TEM-1
  MIC: 32 µg/mL
P. aeruginosa; strain 5671, VIM-1
  MIC: 128 µg/mL
P. aeruginosa; strain 8273, PDC/TEM-1
  MIC: 16 µg/mL
P. aeruginosa; strain 164951, W.T.
  MIC: 2 µg/mL
P. aeruginosa; strain 377860, W.T.
  MIC: 4 µg/mL
P. aeruginosa; strain 384743, PDC/TEM-1
  MIC: 16 µg/mL
P. aeruginosa; strain 1071703, GES-6
  MIC: 64 µg/mL
P. aeruginosa; strain 1113755, GES-5
  MIC: ≥ 256 µg/mL
P. aeruginosa; strain 1138223, GES-19
  MIC: ≥ 256 µg/mL
P. aeruginosa; strain 1138337, GES-19
  MIC: ≥ 256 µg/mL
P. aeruginosa; strain 1258509, GES-6
  MIC: 64 µg/mL
P. aeruginosa; strain 1275655, GES-20
  MIC: ≥ 256 µg/mL
P. aeruginosa; strain 1300089, GES-19
  MIC: ≥ 256 µg/mL
P. aeruginosa; strain PA2, W.T.
  MIC: 4 µg/mL
P. aeruginosa; strain PAA1-9G1, GES-5
  MIC: ≥ 256 µg/mL
P. aeruginosa; strain PAA1-9G2, GES-5
  MIC: ≥ 256 µg/mL
P. aeruginosa; strain PS-12, VIM-2
  MIC: 64 µg/mL
P. aeruginosa; strain PS-32, VIM-2
  MIC: 16 µg/mL
P. aeruginosa; strain Paeβ-04, 100-fold ↑ PDC-2/30% OprD/5.6x ↑ABM
  MIC: 32 µg/mL
P. aeruginosa; strain Paeβ-10, 67-fold ↑ PDC-2/0.1% OprD/5.7x↑ABM
  MIC: 32 µg/mL
P. aeruginosa; strain Paeβ-15, 310-fold ↑ PDC-2/10% OprD/4.4x↑XYM
  MIC: 64 µg/mL
P. aeruginosa; strain Paeβ-17, 62-fold ↑PDC-3/30% OprD/10.2x and 9.9x ↑XYM and CDJ
  MIC: 64 µg/mL
P. aeruginosa; strain Paeβ-18, 600-fold ↑ PDC-3/<0.01% OprD/3.9x and 5.6x ↑ABM and XYM
  MIC: ≥ 256 µg/mL
P. aeruginosa; strain Paeβ-21, 200-fold ↑ PDC-4/10% OprD/13.5x ↑XYM
  MIC: 64 µg/mL
P. aeruginosa; strain Ps296, VIM-2
  MIC: 64 µg/mL
S. typhi
  MIC: 64 µg/mL
S. marcescens; strain 134434, AmpC/SHV-12/TEM-1
  MIC: 64 µg/mL
S. marcescens; strain 192476, AmpC/TEM-1/SHV-5
  MIC: 128 µg/mL
S. marcescens; strain 192478, AmpC/SHV-12/TEM-1
  MIC: 128 µg/mL
S. marcescens; strain 218073, AmpC/SHV-7/TEM-1
  MIC: 64 µg/mL
E. coli
  MIC: 64 µg/mL
E. coli; Escherichia coli, strain 469, AmpC/SHV-12/TEM-1, read-out: MIC
  MIC: 64 µg/mL
E. coli; Escherichia coli, strain 1924, TEM-12, read-out: MIC
  MIC: 32 µg/mL
E. coli; Escherichia coli, strain 664507, OXA-48, read-out: MIC
  MIC: 64 µg/mL
E. coli; Escherichia coli, strain 664516, OXA-48, read-out: MIC
  MIC: 64 µg/mL
E. coli; Escherichia coli, strain 664520, OXA-48, read-out: MIC
  MIC: 64 µg/mL
E. coli; Escherichia coli, strain 664522, OXA-48, read-out: MIC
  MIC: 64 µg/mL
E. coli; Escherichia coli, strain 664523, OXA-48, read-out: MIC
  MIC: 64 µg/mL
E. coli; Escherichia coli, strain 873435, CTX-M-15, read-out: MIC
  MIC: 128 µg/mL
E. coli; Escherichia coli, strain 875627, CTX-M-27, read-out: MIC
  MIC: 8 µg/mL
E. coli; Escherichia coli, strain 878358, TEM-1/CTX-M, read-out: MIC
  MIC: 32 µg/mL
E. coli; Escherichia coli, strain 890500, TEM-1/CTX-M-14, read-out: MIC
  MIC: 4 µg/mL
E. coli; Escherichia coli, strain 1275635, VIM-23, read-out: MIC
  MIC: 128 µg/mL
E. coli; Escherichia coli, strain 1459453, NDM-7, read-out: MIC
  MIC: ≥ 256 µg/mL
E. coli; Escherichia coli, strain CDC-0069, NDM, read-out: MIC
  MIC: ≥ 256 µg/mL
E. coli; Escherichia coli, strain CDC-0149, NDM, read-out: MIC
  MIC: ≥ 256 µg/mL
E. coli; Escherichia coli, strain EC1552 2A, AmpC/CMY-2/TEM-1, CTX-M-15, read-out: MIC
  MIC: 64 µg/mL
E. coli; Escherichia coli, strain ESBL 5, CTX-M-15/TEM-1, read-out: MIC
  MIC: 128 µg/mL
E. coli; Escherichia coli, strain SI-LP377, CTX-M-2, read-out: MIC
  MIC: 8 µg/mL
E. coli; Escherichia coli, strain SI-M004, SHV-2/GES-12, read-out: MIC
  MIC: ≥ 256 µg/mL
E. coli; Escherichia coli, strain SI-PO26, AmpC/CMY-2/TEM-1, read-out: MIC
  MIC: 64 µg/mL
E. coli; Escherichia coli, strain SI-V502, TEM-29/CTX-M-15, read-out: MIC
  MIC: 32 µg/mL
E. coli; Escherichia coli, strain VER, OXA-48, read-out: MIC
  MIC: 0.5 µg/mL
